Patent publication US7304068B2, “Substituted pyrazolo [1,5-A] pyrimidinyls and pharmaceutical uses therefore” (SmithKline Beecham Corporation, priority 2002, dated 2007)

What follows are compounds tested on HSV-1 (assay: HSV-1 replication in infected Vero 76 cells, DNA hybridization capture assay). Conditions: Human alphaherpesvirus 1; HSV-1 infected Vero 76 cells (MOI=0.001), 40-48 hours incubation, HSV DNA detected by hybridization/chemiluminescence.
Type: cell-based, herpes simplex virus 1
Experimental: Vero 76 cells were maintained in MEM with Earle's salts, L-glutamine, 8% FBS (Hyclone, A-1111-L) and 100 units/mL Penicillin-100 μg/mL Streptomycin. For assay conditions, FBS was reduced to 2%. Cells are seeded into 96-well tissue culture plates at a density of 5×10^4 cells/well after being incubated for 45 min at 37° C. in the presence of HSV-1 or HSV-2 (MOI=0.001). Test compounds are added to the wells and the plates are incubated at 37° C. for 40-48 hours. Cell lysates are prepared as follows: media was removed and replaced with 150 μL/well 0.2 N NaOH with 1% igepal CA 630 or NP-40. Plates were incubated up to 14 days at room temperature in a humidified chamber to prevent evaporation.
For the detection probe, a gel-purified, digoxigenin-labeled, 710-bp PCR fragment of the HSV UL-15 sequence was utilized. PCR conditions included 0.5 μM primers, 180 μM dTTP, 20 μM dUTP-digoxigenin (Boehringer Mannheim 1558706), 200 μM each of dATP, dCTP, and dGTP, 1× PCR Buffer II (Perkin Elmer), 2.5 mM MgCl2, 0.025 units/μL of AmpliTaq Gold polymerase (Perkin Elmer), and 5 ng of gel-purified HSV DNA per 100 μL Extension conditions were 10 min at 95° C., followed by 30 cycles of 95° C. for 1 min, 55° C. for 30 sec, and 72° C. for 2 min. The amplification was completed with a 10-min incubation at 72° C. Primers were selected to amplify a 728 bp probe spanning a section of the HSV1 UL15 open reading frame (nucleotides 249-977). Single-stranded transcripts were purified with Promega M13 Wizard kits. The final product was mixed 1:1 with a mixture of 6 M GuSCN, 100 mM EDTA and 200 μg/mL herring sperm DNA and stored at 4° C.
The capture DNA plasmid (HSV UL13 region in pUC) was linearized by cutting with Xba I, denatured for 15 min at 95° C. and diluted immediately into Reacti-Bind DNA Coating Solution (Pierce, 17250, diluted 1:1 with TE buffer, pH 8) at 1 ng/μL. 75 μL/well were added to Corning (#3922 or 9690) white 96-well plates and incubated at room temperature for at least 4 hrs before washing twice with 300 μL/well 0.2×SSC/0.05% Tween-20 (SSC/T buffer). The plates were then incubated overnight at room temperature with 150 μL/well 0.2 N NaOH, 1% IGEPAL and 10 μg/mL herring sperm DNA.
Twenty-seven (27) μL of cell lysate was combined with 45 μL of hybridization solution (final concentration: 3M GuSCN, 50 mM EDTA, 100 μg/ml salmon sperm DNA, 5× Denhardt's solution, 0.25× APE, and 5 ng of the digoxigenin-labeled detection probe). APE is 1.5 M NH4-acetate, 0.15 M NH4H2 phosphate, and 5 mM EDTA adjusted to pH 6.0. Mineral oil (50 μL) was added to prevent evaporation. The hybridization plates were incubated at 95° C. for 10 minutes to denature the DNA, then incubated at 42° C. overnight. The wells were washed 6× with 300 μL/well SSC/T buffer then incubated with 75 μL/well anti-digoxigenin-HRP-conjugated antibody (Boehringer Mannheim 1207733, 1:5000 in TE) for 30 min at room temperature. The wells were washed 6× with 300 μL/well with PBS/0.05% Tween-20 before 75 μL/well SuperSignal LBA substrate (Pierce) was added. The plates were incubated at room temperature for 30 minutes and chemiluminescence was measured in a Wallac Victor reader.
The following results were obtained for HSV-1.

| Compound | IC50 [nM] |
| --- | --- |
| Fc1cc(-c2c(-c3ccccc3)nn3c(N4CCCC4)ccnc23)ccn1 [Example 1, 3-(2-Fluoropyridin-4-yl)-2-phenyl-7-pyrrolidin-1-ylpyrazolo[1,5-α]pyrimidine] | 28000 |
| c1ccc(-c2nn3c(N4CCCC4)ccnc3c2-c2ccnc(NC3CCCC3)c2)cc1 [Example 2, N-Cyclopentyl-4(2-phenyl-7-pyrrolidin-1-ylpyrazolo[1,5-α]pyrimidin-3-yl)pyridin-2-amine] | 800 |
| c1ccc(-c2nn3c(NC4CCCC4)ccnc3c2-c2ccnc(NC3CCCC3)c2)cc1 [Example 3, N-Cyclopentyl-3-[2-(cyclopentylamino)pyridin-4-yl]-2-phenylpyrazolo[1,5-α]pyrimidin-7-amine] | 300 |
| Fc1ccc(-c2nn3c(NC4CCCC4)ccnc3c2-c2ccnc(NC3CCCC3)c2)cc1 [Example 5, N-Cyclopentyl-3-[2-(cyclopentylamino)-4-pyridinyl]-2-(4-fluorophenyl)pyrazolo[1,5-α]pyrimidin-7-amine] | 1200 |
| COc1ccc(-c2nn3c(NC4CCCC4)ccnc3c2-c2ccnc(NC3CCCC3)c2)cc1 [Example 4, N-Cyclopentyl-3-[2-(cyclopentylamino)-4-pyridinyl]-2-(4-methoxyphenyl)pyrazolo[1,5-α]pyrimidin-7-amine] | 600 |
| COc1ccc(-c2nn3c(NC4CCCC4)ccnc3c2-c2ccnc(NC3CCCC3)n2)cc1 [Example 6, N-Cyclopentyl-3-[2-(cyclopentylamino)pyrimidin-4-yl]-2-(4-methoxyphenyl)pyrazolo[1,5-α]pyrimidin-7-amine] | 2400 |
